Experimental data: patent publication US4490363A, “Metorphamide--a novel morphine-like peptide” (Board of Trustees of The Leland Stanford Junior University …, priority 1983, dated 1984)
Where two headings read alike, the source gives them in different places. Peptide text beside a SMILES is read from it.

How the values were obtained:
κ-site = target: T1, κ-site (Cavia porcellus, UniProt P41144); assay: Binding assay in guinea pig brain homogenates, [3H]-(-)-bremazocine after suppression of μ- and δ-binding
T1 construct: The assays used homogenates of guinea-pig brain; from tissue; host or cells: guinea pig brain homogenate
Protocol: (§1) [^3 H]-[D-Ala^2,MePhe^4, Gly-ol^5 ]enkephalin (1 nM) was used as μ-ligand, [^3 H]-[D-Ala^2,D-Leu^5 ]enkephalin (1 nM) as a relatively selective δ-ligand and [^3 H]-(-)-bremazocine (0.3 nM) as κ-ligand, in the presence of 100 nM each of unlabelled [D-Ala^2,MePhe^4,Gly-ol^5 ]enkephalin and [D-Ala^2,D-Leu^5 ]enkephalin for the suppression of μ- and δ-binding.
(§2) The μ- and […] of [^3 H]-(-)-bremazocine was suppressed with 100 nM each of unlabelled [D-Ala^2,MePhe^4,Gly-ol^5 ]enkephalin and [D-Ala^2,D-Leu^5 ]enkephalin.

carboxypeptidase A = target: T2, carboxypeptidase A (Bos taurus, UniProt P00730); assay: Carboxypeptidase A digestion of bovine metorphamide and dynorphin; assay type: in vitro ADME; settings: 400 ng enzyme, 37° C., pH 7.5
T2 construct: purchased Sigma (printed as σ) type 1-DFP
T2 sequence (P00730 111-419): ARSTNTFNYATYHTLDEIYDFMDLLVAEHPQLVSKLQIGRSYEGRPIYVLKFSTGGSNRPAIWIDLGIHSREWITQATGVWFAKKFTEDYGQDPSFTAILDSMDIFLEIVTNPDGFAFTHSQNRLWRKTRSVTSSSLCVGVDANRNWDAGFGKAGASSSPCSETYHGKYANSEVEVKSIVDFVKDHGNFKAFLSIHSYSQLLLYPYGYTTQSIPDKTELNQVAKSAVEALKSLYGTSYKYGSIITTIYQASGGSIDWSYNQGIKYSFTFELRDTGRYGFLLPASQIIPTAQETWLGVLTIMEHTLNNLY
Protocol: A mixture of bovine metorphamide (30-35 pmol.) and synthetic dynorphin (60-70 pmol.) was dissolved in 1.6 ml. 0.02 m Tris buffer, containing 0.2 m NaCl and 0.1% Triton X-100, pH 7.5. 5 μl of a 20 mg/ml suspension of carboxypeptidase A (σ, type 1-DFP) containing 100 μg enzyme were dissolved in 1 ml. 10% LiCl. […] aliquots were withdrawn at times 1, 5, 10 and 60 minutes an equal volume of glacial acetic acid was added to each sample to terminate the enzyme reaction. After evaporation, the samples were assayed in triplicate by radioaminoassay for dynorphin and metorphamide. 0 time samples were withdrawn before enzyme was added to determine the amounts of peptides that were initially present in the incubation mixture. A separate sample of peptide mixture that received 4 μl of 10% LiCl without the enzyme was incubated at 37° C. for 60 minutes and 50 μl aliquots of this sample were also assayed for metorphamide and dynorphin. This latter sample served as a control for any non-specific degradation of peptide that may have occurred by unknown factors. […] The results of the digestion are shown in FIG. 2 wherein the metorphamide is indicated by O--O and dynorphin by X--X. Bovine metorphamide was stable to carboxypeptidase A digestion for at least 60 minutes while dynorphin was completely digested by the enzyme after 5 minutes.

Rabbit vas deferens = assay: Opioid bioassay, rabbit vas deferens; assay type: cell-based; settings: mean±SEM; peptidases inhibited by bestatin (30 μM), L-leucyl-L-leucine, thiorphan, captopril
Protocol: (§3) Bioassays were performed using preparations of the myenteric plexus-longitudinal muscle of the guinea pig and the vasa deferentia of the mouse, rabbit and rat. According to the procedures described by McKnight et al., Eur. J. Pharmacol., 86, 393-402 (1983) and Corbett et al., Nature, 299, 79-81 (1982). The drugs were prepared as 1 mg/ml stock solutions in water and dilutions were made in Krebs solution. The bioassays were performed on [Met 5] enkephalin and C-terminally extended Met 5 enkephalins, and compared with metorphamide.
(§4) The values shown are the mean±SEM of 4 observations and of 6 for [Met^5 ]enkephalyl-Arg-Arg-Val-Gly. The activity of the peptidases was inhibited by bestatin (10 μM, or 30 μM in the rat and rabbit), L-leucyl-L-leucine ([…]), thiorphan (0.3 μM) and captopril (10 μM).

μ-site = assay: Binding assay in guinea pig brain homogenates, μ-ligand [3H]-[D-Ala2,MePhe4,Gly-ol5]enkephalin; settings: for Ki: guinea-pig brain homogenates, 150 minutes at 0° C., mean ±SEM, read-out: KI, [3H]-[DAla2,MePhe4,Gly-ol5]enkephalin (μ-site)
Protocol: as §1, §2

δ-site = assay type: binding, guinea pig; settings: for Ki: guinea-pig brain homogenates, 150 minutes at 0° C., mean ±SEM, read-out: KI, [3H]-[DAla2,D-Leu5]enkephalin (δ-site)
Protocol: as §1, §2

[1] = tested on: myenteric plexus-longitudinal muscle of the guinea pig; settings: values marked ** (from literature); cited from earlier work
Mouse vas deferens [2] = settings: values marked ** (from literature); cited from earlier work
Rat vas deferens [3] = settings: values marked ** (from literature); cited from earlier work
[4] = tested on: anti-serum (R1-3) to synthetic metorphamide; assay: Radioaminoassay of metorphamide: cross-reaction with anti-serum R1-3, 125I-labeled synthetic metorphamide as tracer; assay type: binding, rabbit; settings: on a molar basis
From the text: An anti-serum to synthetic metorphamide was generated in male New Zealand white rabbits by injecting synthetic peptide linked to bovine thyroglobulin by carbodiimide according the method of Weber et al., J. Neurochem., 38, 436-447 (1982). The resulting anti-serum (R1-3) was used in a radioaminoassay using ^125 I labeled synthetic metorphamide as a tracer. The procedure used was as described by Weber et al. with modifications described by Weber et al., Nature, 299, 77-79 (1982). The metorphamide or radioaminoassay requires the carboxylterminal amide group as part of the recognition site. On a molar basis the free carboxy derivative of metorphamide cross reacts with less than 1.02% and the analog of metorphamide in which the carboxyterminal amide was substituted by a Glycine residue cross reacts at less than 0.3%. The adrenal medulla opioid peptides Bam-22 and Bam-12 (Mizuno et al., Biochem. Biophys. Res. Commun., 95, 1482-1488 (1980); Mizuno et al., Biochem. Biophys. Res. Commun., 97, 1283-1290 (1980)) which are carboxyterminal extensions of metorphamide both cross react less than 0.006% in the radioaminoassay.

[5] = tested on: myenteric plexus-longitudinal muscle of the guinea pig; assay: Opioid bioassay, guinea-pig myenteric plexus-longitudinal muscle; assay type: cell-based; settings: mean±SEM; peptidases inhibited by bestatin, L-leucyl-L-leucine, thiorphan, captopril
Protocol: as §3, §4

Mouse vas deferens [6] = assay: Opioid bioassay, mouse vas deferens; assay type: cell-based; settings: mean±SEM; peptidases inhibited by bestatin, L-leucyl-L-leucine, thiorphan, captopril
Protocol: as §3, §4

Rat vas deferens [7] = assay: Opioid bioassay, rat vas deferens; assay type: cell-based; settings: peptidases inhibited by bestatin (30 μM), L-leucyl-L-leucine, thiorphan, captopril
Protocol: as §3, §4

[8] = at KD concentrations of the tritiated ligands, total binding=1

T1 sequence (P41144 whole entry): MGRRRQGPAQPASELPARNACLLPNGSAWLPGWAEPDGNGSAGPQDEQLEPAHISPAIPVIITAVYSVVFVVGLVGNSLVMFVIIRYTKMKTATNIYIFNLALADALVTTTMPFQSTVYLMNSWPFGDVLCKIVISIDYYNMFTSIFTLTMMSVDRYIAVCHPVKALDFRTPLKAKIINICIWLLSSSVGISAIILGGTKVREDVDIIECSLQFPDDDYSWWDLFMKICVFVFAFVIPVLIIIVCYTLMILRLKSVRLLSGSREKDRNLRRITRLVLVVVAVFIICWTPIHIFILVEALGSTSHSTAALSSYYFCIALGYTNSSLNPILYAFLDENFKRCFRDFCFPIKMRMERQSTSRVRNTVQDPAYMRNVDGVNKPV

Compound	Ki (κ-site) [nM]	IC50 (Rabbit vas deferens) [nM]	Ki (μ-site) [nM]	Ki (δ-site) [nM]	IC50 [5] [nM]	IC50 (Mouse vas deferens [6]) [nM]	IC50 (Rat vas deferens [7]) [nM]	further results
CSCC[C@H](NC(=O)[C@H](Cc1ccccc1)NC(=O)CNC(=O)CNC(=O)[C@@H](N)Cc1ccc(O)cc1)C(=O)N[C@@H](CCCNC(=N)N)C(=O)N[C@@H](CCCNC(=N)N)C(=O)N[C@H](C(=O)O)C(C)C [D, [Met^5 ]enkephalylArg-Arg-Val]	2.11 ± 0.29							
CC[C@H](C)[C@H](NC(=O)[C@H](CCCNC(=N)N)NC(=O)[C@H](CCCNC(=N)N)NC(=O)[C@H](CC(C)C)NC(=O)[C@H](Cc1ccccc1)NC(=O)CNC(=O)CNC(=O)[C@@H](N)Cc1ccc(O)cc1)C(=O)N[C@@H](CCCNC(=N)N)C(=O)N1CCC[C@H]1C(=O)N[C@@H](CCCCN)C(=O)N[C@@H](CC(C)C)C(=O)N[C@@H](CCCCN)C(=O)N[C@@H](Cc1c[nH]c2ccccc12)C(=O)N[C@@H](CC(=O)O)C(=O)N[C@@H](CC(N)=O)C(=O)N[C@@H](CCC(N)=O)C(=O)O [dynorphin]								time after which completely digested by carboxypeptidase A (carboxypeptidase A): 5 min
CSCC[C@H](NC(=O)[C@H](Cc1ccccc1)NC(=O)CNC(=O)CNC(=O)[C@@H](N)Cc1ccc(O)cc1)C(=O)O [A, [Met^5]enkephalin]		> 10000	9.5 ± 0.54	0.91 ± 0.07				IC50 [1]: 6.7 nM; IC50 (Mouse vas deferens [2]): 1.45 nM; IC50 (Rat vas deferens [3]): 260 nM
CSCC[C@H](NC(=O)[C@H](Cc1ccccc1)NC(=O)CNC(=O)CNC(=O)[C@@H](N)Cc1ccc(O)cc1)C(=O)N[C@@H](CCCNC(=N)N)C(=O)N[C@@H](CCCNC(=N)N)C(=O)N[C@H](C(=O)NCC(=O)O)C(C)C [E] (H-YGGFMRRVG-OH; N-terminus and C-terminus assumed)		54.7 ± 11	1.39 ± 0.23	8.58 ± 1.54	6.62 ± 0.8	21.4 ± 3.1	> 3000	cross reaction in the metorphamide radioaminoassay [4]: less than 0.3%
CSCC[C@H](NC(=O)[C@H](Cc1ccccc1)NC(=O)CNC(=O)CNC(=O)[C@@H](N)Cc1ccc(O)cc1)C(=O)N[C@@H](CCCNC(=N)N)C(=O)N[C@@H](CCCNC(=N)N)C(=O)O [C, [Met^5]enkephalylArg-Arg]	11.2 ± 1.8							
CSCC[C@H](NC(=O)[C@H](Cc1ccccc1)NC(=O)CNC(=O)CNC(=O)[C@@H](N)Cc1ccc(O)cc1)C(=O)N[C@@H](CCCNC(=N)N)C(=O)N[C@@H](CCCNC(=N)N)C(=O)N[C@H](C(N)=O)C(C)C [F]		41.2 ± 4.9	0.115 ± 0.019	2.65 ± 0.23	2.46 ± 0.34	6.2 ± 1.1	> 3000	time stable to carboxypeptidase A digestion (carboxypeptidase A): at least 60 minutes; relative potency (relative affinity) at the μ-site (μ-site; [8]): 0.66; activity for the μ-binding site relative to that of morphine (μ-site; ratio of relative affinities): approximately 2/3; relative potency (relative affinity) at the δ-site (δ-site; [8]): 0.03; relative potency (relative affinity) at the κ-site (κ-site; [8]): 0.31
